≈ marks a conversion by molar mass, not a printed value. Where “and” joins values, the source holds several entries; their conditions need not be identical. Equal values may be shown once. Entries after “also recorded” stand apart in the source; their conditions may differ. Read-outs that look alike come from different tables or passages of the source. Marks after values point to notes of the source that are not given here.
What was measured:
LS P. berghei = test: Liver stage P. berghei infection of Huh7 hepatoma cells; assay type: cell-based, Plasmodium berghei; conditions: for Effect on P. berghei infection of Huh7 cells: 48 h treatment, Fig. 1
PfFabZ [1] = molecular target: T1, PfFabZ (Plasmodium falciparum, UniProt Q965D7); test: PfFabZ enzyme inhibition assay; assay type: biochemical, P. falciparum
T1 sequence (Q965D7 19-230): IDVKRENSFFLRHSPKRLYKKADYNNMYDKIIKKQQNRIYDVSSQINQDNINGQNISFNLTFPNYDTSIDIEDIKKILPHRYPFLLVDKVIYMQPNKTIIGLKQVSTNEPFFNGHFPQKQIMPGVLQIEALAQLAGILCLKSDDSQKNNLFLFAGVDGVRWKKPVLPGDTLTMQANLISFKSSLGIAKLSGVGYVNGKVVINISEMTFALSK

PfFabG [2] = molecular target: T2, PfFabG (Plasmodium falciparum, UniProt Q8I2S7); test: PfFabG enzyme inhibition assay; assay type: biochemical, P. falciparum
BS P. falciparum K1 [3] = test: Blood stage antiplasmodial activity, 3H-hypoxanthine method; assay type: cell-based; conditions: Plasmodium falciparum, K1, read-out: IC50 BS P. falciparum
Huh7 cells = test: Host cell viability of Huh7 cells; assay type: cell-based, human; conditions: Alamar Blue; up to the highest test concentrations
zebrafish larvae liver = test: Hepatotoxicity in zebrafish larvae; assay type: in vivo, zebrafish (Danio rerio); conditions: 6 dpf; for Hepatotoxic effects / liver phenotype at the MTC: 2-HDA 0.8 μM, 2-ODA 1 μM, 2-TDA 1.2 μM
[4] = molecular target: Leishmania topoisomerase IB enzyme; conditions: read-out: EC50 Leishmania topoisomerase IB; ref [4]; cited from earlier work
L6 cells = conditions: cited from earlier work
zebrafish larvae = test: General toxicity in zebrafish larvae; conditions: treated 3 to 6 dpf, MTC at 6 dpf
PfFabI [5] = molecular target: T3, PfFabI (Plasmodium falciparum, UniProt Q9BH77); test: PfFabI enzyme inhibition assay; assay type: biochemical, P. falciparum
T3 sequence (Q9BH77 22-432): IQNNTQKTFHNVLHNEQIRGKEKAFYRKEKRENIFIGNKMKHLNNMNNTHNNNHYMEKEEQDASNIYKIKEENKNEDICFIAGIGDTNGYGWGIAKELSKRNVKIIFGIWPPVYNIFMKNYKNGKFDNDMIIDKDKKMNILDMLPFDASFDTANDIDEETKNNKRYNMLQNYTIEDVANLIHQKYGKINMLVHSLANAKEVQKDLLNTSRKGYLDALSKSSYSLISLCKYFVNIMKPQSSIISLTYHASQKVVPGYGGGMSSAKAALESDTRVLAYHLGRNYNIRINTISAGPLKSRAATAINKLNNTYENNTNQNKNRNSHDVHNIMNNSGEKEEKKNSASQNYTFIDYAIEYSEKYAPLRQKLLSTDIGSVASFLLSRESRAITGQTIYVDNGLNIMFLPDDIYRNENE

[6] = molecular target: PfFAS-II enzymes PfFabI, PfFabZ, PfFabG; test: PfFAS-II enzyme inhibition, range over PfFabI, PfFabZ and PfFabG; assay type: biochemical, P. falciparum; conditions: range over the three enzymes
Leishmania donovani = conditions: read-out: EC50 against Leishmania donovani; ref [4]; cited from earlier work
[7] = ref [6]; cited from earlier work
PfFabI [8] = molecular target: T3, PfFabI; conditions: values marked **, ref [3] (table footnote), [5], cited from earlier work
PfFabZ [9] = molecular target: T1, PfFabZ; conditions: values marked **, ref [3] (table footnote), [5], cited from earlier work
BS P. falciparum K1 [10] = conditions: K1 strain; values marked **; ref [3] (table footnote), [5]; cited from earlier work
PfFabG [11] = molecular target: T2, PfFabG; conditions: values marked **; ref [3] (table footnote), [5]; cited from earlier work
[12] = test system: LS forms of Plasmodium yoelii; conditions: ref [5], cited from earlier work
[13] = rat skeletal myoblasts, values marked *, ref [2]

## CCCCCCCCCCCC#CC(=O)O [2-TDA, 2-tetradecynoic acid]
LS P. berghei
  Effect on P. berghei infection of Huh7 cells: greatly impaired infection
PfFabZ [1]
  IC50 PfFabZ: 3.5 µg/mL (≈ 15.6 µM)
PfFabG [2]
  IC50 PfFabG: 5.5 µg/mL (≈ 24.5 µM)
BS P. falciparum K1 [3]
  IC50: 27.3 µg/mL (≈ 122 µM)
Huh7 cells
  Effect on cell viability of Huh7 host cells: no apparent effects on cell viability
Zebrafish larvae liver; 3 days of exposure
  Hepatotoxic effects / liver phenotype at the MTC: induced liver toxicity; also recorded: round-shaped liver with reduced fluorescence
Zebrafish larvae liver; 1.0 μM = 0.22 μg/ml, below the MTC
  Hepatotoxic effects / liver phenotype: did not induce any apparent signs of liver toxicity
[4]
  EC50: 68 µM
L6 cells; [13]
  IC50 L6 cell toxicity: 9.2* μg/ml
Zebrafish larvae
  Maximum-tolerated concentration (MTC): 0.27 µg/mL

## CCCCCCCCCCCCCCCC#CC(=O)O [2-ODA, 2-octadecynoic acid]
LS P. berghei
  Effect on P. berghei infection of Huh7 cells: greatly impaired infection
PfFabI [5]
  IC50 PfFabI: 0.30 µg/mL (≈ 1.07 µM)
PfFabZ [1]
  IC50 PfFabZ: 0.28 µg/mL (≈ 0.998 µM)
PfFabG [2]
  IC50 PfFabG: 0.80 µg/mL (≈ 2.85 µM)
[6]
  IC50 values against PfFabI, PfFabZ and PfFabG (range): 0.28 to 0.80 µg/mL
Huh7 cells
  Effect on cell viability of Huh7 host cells: no apparent effects on cell viability
Zebrafish larvae liver; 3 days of exposure
  Hepatotoxic effects / liver phenotype at the MTC: non-hepatotoxic; also recorded: normal liver
Leishmania donovani
  EC50: 11 µM
[4]
  EC50: 5 µM
[7]
  Critical micelle concentration (CMC): 50 µg/mL
L6 cells; [13]
  IC50 L6 cell toxicity: 5.6* μg/ml

## CCCCCCCCCCCCCCCC(=O)O [PA, palmitic acid, reference compound]
LS P. berghei; 25 μg/ml
  LS activity at the highest test concentration: devoid of any LS activity
Zebrafish larvae liver; 3 days of exposure, 700 μM = 179.2 μg/ml
  Hepatotoxic effects / liver phenotype: no hepatotoxic effects; also recorded: normal liver
PfFabI [8]; read-out: IC50 PfFabI
  IC50: > 390 µM
PfFabZ [9]; read-out: IC50 PfFabZ
  IC50: > 390 µM
BS P. falciparum K1 [10]
  IC50 BS P. falciparum: 3.8** μg/ml
L6 cells
  IC50 L6 cell toxicity: 52.7** μg/ml

## 2-hexadecynoic acid [2-HDA]
Zebrafish larvae liver; 3 days of exposure
  Hepatotoxic effects / liver phenotype at the MTC: non-hepatotoxic; also recorded: normal liver
PfFabI [8]
  IC50 PfFabI: 0.38** μg/ml
PfFabZ [9]
  IC50 PfFabZ: 0.58** μg/ml
PfFabG [11]
  IC50 PfFabG: 3.5** μg/ml
BS P. falciparum K1 [10]
  IC50 BS P. falciparum: 10.4** μg/ml
Leishmania donovani
  EC50: 17.8 µM
[4]
  EC50: 28 µM
[7]
  Critical micelle concentration (CMC): > 90 µg/mL
[12]; assessed by flow cytometry
  IC50 LS P. yoelii: 15.3 µg/mL
[12]; assessed by immunofluorescence activity
  IC50 LS P. yoelii: 4.88 µg/mL
L6 cells
  IC50 L6 cell toxicity: 85.9** μg/ml
Zebrafish larvae
  Maximum-tolerated concentration (MTC): 0.20 μg/ml and 0.8 μM

## CC(=O)Nc1ccc(O)cc1 [paracetamol, reference compound]
Zebrafish larvae liver; 3 days of exposure, 300 μM, positive control
  Hepatotoxic effects / liver phenotype: smaller-sized liver

## CCN(CC)CCCC(C)Nc1ccnc2cc(Cl)ccc12 (stereo not drawn) [Chloroquine, reference compound]
BS P. falciparum K1 [3]
  IC50: 0.117 µg/mL (≈ 0.366 µM)

## COc1cc([C@@H]2c3cc4c(cc3[C@H](O)[C@H]3COC(=O)[C@H]23)OCO4)cc(OC)c1OC [Podophyllotoxin, reference compound]
L6 cells; [13]
  IC50 L6 cell toxicity: 0.02^e,* μg/ml

From article PMC4146677 (Bioorganic & medicinal chemistry letters, 2014)
